Laboratory results: patent US12351559B2 (Biohaven Therapeutics Ltd., priority 2014, dated 2025)

Target: T1, Kv7.2/7.3 (Homo sapiens, UniProt O43525+O43526)
T1 construct: host or cells: HEK cells, tetracycline-inducible expression
Assay: Kv7.2/7.3 activation assay, QPatch planar patch-clamp, single concentration screen
Assay type: cell-based
Set-up: key: <1.2-fold increase over baseline (−); +/−: as a range from <1.2-fold increase over baseline (−) up to >6-fold increase over baseline (+++); as a range from <1.2-fold increase over baseline (−) up to >6-fold increase over baseline (+++); as a range from <1.2-fold increase over baseline (−) up to >6-fold increase over baseline (+++); >6-fold increase over baseline (+++)
Settings: Kv7.2/Kv7.3 co-expressing HEK cells, compound 3 μM, steady-state current at end of 2 s pulse to −30 mV

Compound | Kv7.2/7.3 Activity: increase in current over baseline
Cc1cc2nc(NC(=O)CC(C)(C)C)n(C(C)(C)C)c2cc1C#N [Example 127, N-(1-(tert-butyl)-6-cyano-5-methyl-1H-benzo[d]imidazol-2-yl)-3,3-dimethylbutanamide] | +
Cc1cc2nc(NC(=O)CC(C)(C)O)n(C(C)(C)C)c2cc1C#N [Example 128, N-(1-(tert-butyl)-6-cyano-5-methyl-1H-benzo[d]imidazol-2-yl)-3-hydroxy-3-methylbutanamide] | +/−
Cc1cc2nc(NC(=O)C3CC(F)(F)C3)n(C(C)(C)C)c2cc1C#N [Example 129, N-(1-(tert-butyl)-6-cyano-5-methyl-1H-benzo[d]imidazol-2-yl)-3,3-difluorocyclobutane-1-carboxamide] | +/−
C[C@@](O)(CC(=O)Nc1nc2cc(C(F)(F)F)cc(F)c2n1C1CCC1)C(F)(F)F [Example 132, (R)-N-(1-cyclobutyl-7-fluoro-5-(trifluoromethyl)-1H-benzo[d]imidazol-2-yl)-4,4,4-trifluoro-3-hydroxy-3-methylbutanamide] | +/−
CC(C)(O)CC(=O)Nc1nc2cc(C(F)(F)F)cc(F)c2n1C1CCC1 [Example 133, N-(1-cyclobutyl-7-fluoro-5-(trifluoromethyl)-1H-benzo[d]imidazol-2-yl)-3-hydroxy-3-methylbutanamide] | +
Cc1cc2nc(NC(=O)C[C@](C)(O)C(F)(F)F)n(C(C)(C)C)c2cc1C#N [Example 134, (S)-N-(1-(tert-butyl)-6-cyano-5-methyl-1H-benzo[d]imidazol-2-yl)-4,4,4-trifluoro-3-hydroxy-3-methylbutanamide] | +/−
Cc1cc2nc(NC(=O)C[C@@](C)(O)C(F)(F)F)n(C(C)(C)C)c2cc1C#N [Example 135, (R)-N-(1-(tert-butyl)-6-cyano-5-methyl-1H-benzo[d]imidazol-2-yl)-4,4,4-trifluoro-3-hydroxy-3-methylbutanamide] | +/−
CC(C)(O)CC(=O)Nc1nc2ccc(C(F)(F)F)cc2n1-c1cc(F)cc(F)c1 [Example 136, N-(1-(3,5-difluorophenyl)-6-(trifluoromethyl)-1H-benzo[d]imidazol-2-yl)-3-hydroxy-3-methylbutanamide] | +
CC(C)(O)CC(=O)Nc1nc2ccc(C(F)(F)F)cc2n1-c1ccc(OC(F)(F)F)c(F)c1 [Example 144, N-(1-(3-fluoro-4-(trifluoromethoxy)phenyl)-6-(trifluoromethyl)-1H-benzo[d]imidazol-2-yl)-3-hydroxy-3-methylbutanamide] | +

Now from value to molecule:

Kv7.2/7.3 Activity: increase in current over baseline | Compound
++ | Cc1cc2nc(NC(=O)C[C@](C)(O)c3ccccc3F)n(C3CCC3)c2cc1C#N [Example 126, (S)-N-(6-cyano-1-cyclobutyl-5-methyl-1H-benzo[d]imidazol-2-yl)-3-(2-fluorophenyl)-3-hydroxybutanamide]
+/− | Cc1cc2nc(NC(=O)CC(C)(C)O)n(C3CCC3)c2cc1C#N [Example 130, N-(6-cyano-1-cyclobutyl-5-methyl-1H-benzo[d]imidazol-2-yl)-3-hydroxy-3-methylbutanamide]
+/− | CC(C)(O)c1ccc2nc(NC(=O)CC(O)(C(F)(F)F)C(F)(F)F)n(-c3ccc(F)cc3)c2c1 [Example 131, 4,4,4-trifluoro-N-(1-(4-fluorophenyl)-6-(2-hydroxypropan-2-yl)-1H-benzo[d]imidazol-2-yl)-3-hydroxy-3-(trifluoromethyl)butanamide]
+ | CC(C)(O)CC(=O)Nc1nc2ccc(C(F)(F)F)cc2n1-c1ccc(OC(F)(F)F)cc1 [Example 137, 3-hydroxy-3-methyl-N-(1-(4-(trifluoromethoxy)phenyl)-6-(trifluoromethyl)-1H-benzo[d]imidazol-2-yl)butanamide]
+ | CC1(n2c(NC(=O)C[C@](C)(O)c3ccc(F)cc3)nc3ccc(C#N)cc32)CCC1 [Example 138, (S)-N-(6-cyano-1-(1-methylcyclobutyl)-1H-benzo[d]imidazol-2-yl)-3-(4-fluorophenyl)-3-hydroxybutanamide]
+ | CC1(n2c(NC(=O)C[C@](C)(O)c3ccccc3Cl)nc3ccc(C#N)cc32)CCC1 [Example 139, (S)-3-(2-chlorophenyl)-N-(6-cyano-1-(1-methylcyclobutyl)-1H-benzo[d]imidazol-2-yl)-3-hydroxybutanamide]
+/− | CC1(n2c(NC(=O)C[C@](C)(O)c3ccc(Cl)cc3)nc3ccc(C#N)cc32)CCC1 [Example 140, (S)-3-(4-chlorophenyl)-N-(6-cyano-1-(1-methylcyclobutyl)-1H-benzo[d]imidazol-2-yl)-3-hydroxybutanamide]
+ | O=C(CC1(O)CCC1)Nc1nc2ccc(C(F)(F)F)cc2n1-c1cc(F)cc(F)c1 [Example 141, N-(1-(3,5-difluorophenyl)-6-(trifluoromethyl)-1H-benzo[d]imidazol-2-yl)-2-(1-hydroxycyclobutyl)acetamide]
++ | O=C(CC1(O)CCC1)Nc1nc2ccc(C(F)(F)F)cc2n1-c1ccc(OC(F)(F)F)cc1 [Example 142, 2-(1-hydroxycyclobutyl)-N-(1-(4-(trifluoromethoxy)phenyl)-6-(trifluoromethyl)-1H-benzo[d]imidazol-2-yl)acetamide]
++ | CC(C)(O)CC(=O)Nc1nc2ccc(C(F)(F)F)cc2n1-c1ccc(F)c(F)c1 [Example 143, N-(1-(3,4-difluorophenyl)-6-(trifluoromethyl)-1H-benzo[d]imidazol-2-yl)-3-hydroxy-3-methylbutanamide]
++ | O=C(CC1(O)CCC1)Nc1nc2ccc(C(F)(F)F)cc2n1-c1ccc(OC(F)(F)F)c(F)c1 [Example 145, N-(1-(3-fluoro-4-(trifluoromethoxy)phenyl)-6-(trifluoromethyl)-1H-benzo[d]imidazol-2-yl)-2-(1-hydroxycyclobutyl)acetamide]
